According to ChEMBL document CHEMBL4190311, “Discovery of cycloalkyl-fused N-thiazol-2-yl-benzamides as tissue non-specific glucokinase activators: Design, synthesis, and biological evaluation” (Eur J Med Chem, 2017):
pEC50: −log10 of the molar value. Calls of active or inactive are those of the source. The calls are words filed in the database; no cut-off is given here.

Assays:
[1] = biological target: T1, Hexokinase-4 (Homo sapiens, UniProt P35557); experiment: Activation of recombinant human liver glucokinase 2 assessed as assessed as reduction in Km for glucose in presence of 5 mM glucose by G6PDH coupled assay
T1 sequence (P35557 whole entry): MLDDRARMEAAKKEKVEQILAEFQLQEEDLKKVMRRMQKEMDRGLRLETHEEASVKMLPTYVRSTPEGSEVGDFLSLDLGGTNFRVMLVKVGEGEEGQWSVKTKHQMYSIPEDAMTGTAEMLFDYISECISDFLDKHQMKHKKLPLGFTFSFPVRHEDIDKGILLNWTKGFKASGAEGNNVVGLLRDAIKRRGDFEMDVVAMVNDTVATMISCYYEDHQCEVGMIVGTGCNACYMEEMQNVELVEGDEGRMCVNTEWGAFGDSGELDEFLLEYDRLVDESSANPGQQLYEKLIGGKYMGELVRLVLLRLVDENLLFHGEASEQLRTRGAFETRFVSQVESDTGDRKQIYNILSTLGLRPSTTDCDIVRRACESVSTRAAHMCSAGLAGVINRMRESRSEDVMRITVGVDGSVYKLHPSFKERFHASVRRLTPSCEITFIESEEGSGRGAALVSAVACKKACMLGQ

[2] = test system: Hepatocyte; experiment: Increase in glucose uptake in mouse primary hepatocytes assessed as glucose uptake level at 20 uM after 24 hrs by glucose oxidase method relative to control; format: functional
[3] = biological target: T2, Hexokinase-4 (Rattus norvegicus) (UniProt P17712); experiment: Activation of glucokinase in rat INS1(832/13) cells assessed as increase in glucose sensitive insulin secretion at 20 uM after 2 hrs in presence of 5.5 mM glucose by AlphaLISA method relative to control; format: cell-based
T2 sequence (whole entry): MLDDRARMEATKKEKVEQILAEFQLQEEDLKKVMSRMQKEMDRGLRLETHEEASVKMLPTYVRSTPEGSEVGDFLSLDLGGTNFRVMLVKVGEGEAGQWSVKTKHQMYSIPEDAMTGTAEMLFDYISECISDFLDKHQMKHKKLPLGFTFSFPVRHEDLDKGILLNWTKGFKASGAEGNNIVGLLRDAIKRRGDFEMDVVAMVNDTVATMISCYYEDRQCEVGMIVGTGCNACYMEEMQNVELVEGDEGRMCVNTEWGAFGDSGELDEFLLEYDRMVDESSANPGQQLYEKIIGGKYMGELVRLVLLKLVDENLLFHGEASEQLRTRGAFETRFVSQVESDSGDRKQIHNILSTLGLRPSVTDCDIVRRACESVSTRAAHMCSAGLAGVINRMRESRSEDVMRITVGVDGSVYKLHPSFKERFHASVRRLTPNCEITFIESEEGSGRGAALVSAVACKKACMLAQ

[4] = biological target: T1, Hexokinase-4; experiment: Activation of recombinant human liver glucokinase 2 assessed as […] in presence of 5 mM glucose by G6PDH coupled assay
[5] = test system: INS1(832/13); experiment: Cytoprotection in rat INS1(832/13) cells assessed as reduction in streptozocin induced beta cells apoptosis after 20 hrs by MTT based spectrophotometric method relative to control; format: functional; design: scale not given: the % may be the effect or the level left
[6] = test system: INS1(832/13); experiment: Cytoprotection in rat INS1(832/13) cells assessed as reduction in streptozocin induced beta cells apoptosis after 20 hrs by MTT based spectrophotometric method; format: functional, cell-based; settings: INS-1 832/13, 20 h

SMILES	fold change (FC) [3]	pEC50 [4]	pEC50 [1]	Activity [2]	Activity [5] [%]	pEC50 [6]
COCC(C)Oc1cc(Oc2ccc(C(=O)N3CCC3)cc2)cc(C(=O)Nc2nc3c(s2)CN(C(=O)OC(C)(C)C)CC3)c1 (stereo not given)	2.29	6.54	6.82	33%	180	6.17
COCC(C)Oc1cc(Oc2ccc(S(C)(=O)=O)cc2)cc(C(=O)Nc2nc3c(s2)CN(C(=O)OC(C)(C)C)CC3)c1 (stereo not given)	1.72	6.49		36%		
COCC(C)Oc1cc(Oc2ccc(S(C)(=O)=O)cc2)cc(C(=O)Nc2nc3c(s2)CCCC3)c1 (stereo not given)	inactive	6.05	7.52	31%	66	6.15
COCCN1CCc2nc(NC(=O)c3cc(Oc4ccc(C(=O)N5CCC5)cc4)cc(O[C@@H](C)COC)c3)sc2C1	6.07	6.68		13%		
Cc1cnc(NC(=O)c2cc(Oc3cnc(C(=O)N(C)C)nc3)c3cc(C)oc3c2)cn1 [NERIGLIATIN]					114	5.67
COCC(C)Oc1cc(Oc2ccccc2S(C)(=O)=O)cc(C(=O)Nc2nc3c(s2)CN(C(=O)OC(C)(C)C)CC3)c1 (stereo not given)		< 5.00				
COC[C@H](C)Oc1cc(Oc2ccc(C(=O)N3CCC3)cc2)cc(C(=O)Nc2nc3c(s2)CN(c2cc[nH]c(=O)c2)CC3)c1	5.51	6.52		inactive		
COCC(C)Oc1cc(Oc2ccc(S(=O)(=O)N3CCC3)cc2)cc(C(=O)Nc2nc3c(s2)CN(C(=O)OC(C)(C)C)CC3)c1 (stereo not given)	1.37	6.05		inactive		
COCC(C)Oc1cc(Oc2ccc(S(C)(=O)=O)cc2)cc(C(=O)Nc2nc3c(s2)CCC3)c1 (stereo not given)	inactive	7.00		31%		
COC[C@@H](C)Oc1cc(Oc2ccc(C(=O)N3CCC3)cc2)cc(C(=O)Nc2nc3c(s2)CN(C(=O)OC(C)(C)C)CC3)c1		5.59				
COCC(C)Oc1cc(Oc2ccc(C(=O)N(C)C)cc2)cc(C(=O)Nc2nc3c(s2)CN(C(=O)OC(C)(C)C)CC3)c1 (stereo not given)	1.24	7.05		inactive		
COCC(C)Oc1cc(Oc2ccc(S(C)(=O)=O)cc2)cc(C(=O)Nc2nc3c(s2)CN(C)CC3)c1 (stereo not given)		5.07				
COC[C@H](C)Oc1cc(Oc2ccc(C(=O)N3CCC3)cc2)cc(C(=O)Nc2nc3c(s2)N(C(=O)OC(C)(C)C)CCC3)c1		5.22				
CCOC(=O)N1CCc2nc(NC(=O)c3cc(Oc4ccc(C(=O)N5CCC5)cc4)cc(O[C@@H](C)COC)c3)sc2C1	5.45	6.64		17%		
COC[C@H](C)Oc1cc(Oc2ccc(C(=O)N3CCC3)cc2)cc(C(=O)Nc2nc3c(s2)CN(c2ccccn2)CC3)c1	2.47	6.54		15%		
COCC(C)Oc1cc(Oc2ccc(S(C)(=O)=O)cc2)cc(C(=O)Nc2nc3c(s2)CN(c2ccccn2)CC3)c1 (stereo not given)		6.05				
COC[C@H](C)Oc1cc(Oc2ccc(C(=O)N3CCC3)cc2)cc(C(=O)Nc2nc3c(s2)CCN(C(=O)OC(C)(C)C)C3)c1	2.24	6.34		13%		
COCC(C)Oc1cc(Oc2ccc(S(C)(=O)=O)cc2)cc(C(=O)Nc2nc3c(s2)CN(Cc2ccccc2)CC3)c1 (stereo not given)		< 5.00				
CC(C)(C)OC(=O)N1CCc2nc(NC(=O)c3cc(OCc4ccccc4)cc(Oc4ccc(S(C)(=O)=O)cc4)c3)sc2C1	inactive	5.15		21%		
COCC(C)Oc1cc(Oc2ccc(S(C)(=O)=O)cc2)cc(C(=O)Nc2nc3c(s2)CN(c2ccccc2)CC3)c1 (stereo not given)		< 5.00				
COC[C@H](C)Oc1cc(Oc2ccc(C(=O)N3CCC3)cc2)cc(C(=O)Nc2nc3c(s2)CN(CCO)CC3)c1		5.34				
CC(C)Oc1cc(Oc2ccc(S(C)(=O)=O)cc2)cc(C(=O)Nc2nc3c(s2)CN(C(=O)OC(C)(C)C)CC3)c1	inactive	6.77		34%		
COC[C@H](C)Oc1cc(Oc2cc(F)cc(F)c2)cc(C(=O)Nc2nc3c(s2)CN(C(=O)OC(C)(C)C)CC3)c1	1.3	6.70		15%		
COCC(C)Oc1cc(Oc2ccc(S(=O)(=O)C3CC3)cc2)cc(C(=O)Nc2nc3c(s2)CN(C(=O)OC(C)(C)C)CC3)c1 (stereo not given)		6.64				
CCS(=O)(=O)c1ccc(Oc2cc(OC(C)COC)cc(C(=O)Nc3nc4c(s3)CN(C(=O)OC(C)(C)C)CC4)c2)cc1 (stereo not given)	inactive	6.85		34%		

Now from value to compound, other results behind:

fold change (FC) [3]	pEC50 [4]	SMILES	pEC50 [1]	Activity [2]	Activity [5] [%]	pEC50 [6]
1.14	6.09	COCC(C)Oc1cc(Oc2cccc(S(C)(=O)=O)c2)cc(C(=O)Nc2nc3c(s2)CN(C(=O)OC(C)(C)C)CC3)c1 (stereo not given)		25%		
inactive	6.26	CC(C)(C)OC(=O)N1CCc2nc(NC(=O)c3cc(Oc4ccc(S(C)(=O)=O)cc4)cc(OC4CCCCC4)c3)sc2C1		29%		
3.52	6.30	COC[C@H](C)Oc1cc(Oc2ccc(C(=O)N3CCC3)cc2)cc(C(=O)Nc2nc3c(s2)CN(C(=O)N(C)C)CC3)c1		21%		
1.3	6.68	COCC(C)Oc1cc(Oc2ccc(S(C)(=O)=O)cc2)cc(C(=O)Nc2nc3c(s2)CN(c2ccncc2)CC3)c1 (stereo not given)		inactive		
4.62	6.31	COC[C@H](C)Oc1cc(Oc2ccc(C(=O)N3CCC3)cc2)cc(C(=O)Nc2nc3c(s2)CN(c2ccncn2)CC3)c1		16%		
	< 5.00	COCC(C)Oc1cc(Oc2ccc(S(C)(=O)=O)cc2)cc(C(=O)Nc2nc3c(s2)C(=O)CCC3)c1 (stereo not given)				
	< 5.00	CC(C)(C)OC(=O)N1CCc2nc(NC(=O)c3cc(OCC4CCCC4)cc(Oc4ccc(S(C)(=O)=O)cc4)c3)sc2C1				
5.68	6.16	COC[C@H](C)Oc1cc(Oc2ccc(C(=O)N3CCC3)cc2)cc(C(=O)Nc2nc3c(s2)CN(C(=O)OC)CC3)c1		16%		
1.42	6.70	COCC(C)Oc1cc(Oc2ccc(S(C)(=O)=O)nc2)cc(C(=O)Nc2nc3c(s2)CN(C(=O)OC(C)(C)C)CC3)c1 (stereo not given)		35%		
	5.27	CCN1CCc2nc(NC(=O)c3cc(Oc4ccc(S(C)(=O)=O)cc4)cc(OC(C)COC)c3)sc2C1 (stereo not given)				
	< 5.00	COCC(C)Oc1cc(Oc2ccc(S(C)(=O)=O)cc2)cc(C(=O)Nc2nc3c(s2)COCC3)c1 (stereo not given)				
	5.65	COCC(C)Oc1cc(Oc2ccc(S(C)(=O)=O)cc2)cc(C(=O)Nc2nc3c(s2)CN(C(C)=O)CC3)c1 (stereo not given)				
	5.96	COCC(C)Oc1cc(Oc2ccc(S(C)(=O)=O)cc2)cc(C(=O)Nc2nc3c(s2)CN(c2cccnc2)CC3)c1 (stereo not given)				
1.1	6.48	COC[C@H](C)Oc1cc(Oc2ccc(C(=O)N3CCC3)c(F)c2)cc(C(=O)Nc2nc3c(s2)CN(C(=O)OC(C)(C)C)CC3)c1		19%		
	5.65	COCCOc1cc(Oc2ccc(S(C)(=O)=O)cc2)cc(C(=O)Nc2nc3c(s2)CN(C(=O)OC(C)(C)C)CC3)c1				
	5.89	C[C@@H](CO)Oc1cc(Oc2ccc(C(=O)N3CCC3)cc2)cc(C(=O)Nc2nc3c(s2)CN(C(=O)OC(C)(C)C)CC3)c1				
6.51	6.77	COC[C@H](C)Oc1cc(Oc2ccc(C(=O)N3CCC3)cc2)cc(C(=O)Nc2nc3c(s2)CN(c2ncccn2)CC3)c1		14%		
inactive	6.74	CC(C)(C)OC(=O)N1CCc2nc(NC(=O)c3cc(Oc4ccc(S(C)(=O)=O)cc4)cc(OC4CCCC4)c3)sc2C1		26%		
	5.15	COCC(C)Oc1cc(Oc2ccc(S(C)(=O)=O)cc2)cc(C(=O)Nc2nc3c(s2)CN(C(C)C)CC3)c1 (stereo not given)				
5.4	6.06	COCC(C)Oc1cc(Oc2ccc(C(=O)N3CCC3)nc2)cc(C(=O)Nc2nc3c(s2)CN(C(=O)OC(C)(C)C)CC3)c1 (stereo not given)		inactive		
	5.95	COC[C@H](C)Oc1cc(Oc2ccc(C(=O)N3CCC3)cc2)cc(C(=O)Nc2nc3c(s2)CNCC3)c1				
